Assays:
[1] = Lethal dose required to produce acute toxicity in mice(po); type: organism-based; conditions: mouse, in vivo
Rattus norvegicus [2] = assay: Biological activity against adjuvant-induced arthritis at the dose of 37.5 mg/kg (p.o.); 18/7; type: functional; conditions: route oral
Rattus norvegicus [3] = assay: Biological activity against adjuvant-induced arthritis at the dose of 150 mg/kg (p.o.); 21/73; type: functional; conditions: route oral
Rattus norvegicus [4] = assay: Biological activity against adjuvant-induced arthritis at the dose of 37.5 mg/kg (p.o.); type: functional; conditions: route oral
[5] = Lethal dose required to produce acute toxicity in mice(ip); type: organism-based; conditions: mouse, in vivo
Rattus norvegicus [6] = assay: Biological activity against carrageenan-induced edema; type: functional; conditions: read-out: ID50 (the source's name)
Rattus norvegicus [7] = assay: Biological activity against adjuvant-induced arthritis at the dose of 75 mg/kg (p.o.); 27/26; type: functional; conditions: route oral
[8] = Therapeutic index (LD50/ID50, MAA) value of the compound; conditions: read-out: TI
Mus musculus [9] = assay: Tested for antiinflammatory activity in the mouse active Arthus (MAA) test by peroral administration; type: functional; conditions: for ED50: po, read-out: ID50 (the source's name)
Rattus norvegicus [10] = assay: Biological activity against adjuvant-induced arthritis at the dose of 150 mg/kg (p.o.); type: functional; conditions: route oral
Rattus norvegicus [11] = assay: Biological activity against adjuvant-induced arthritis at the dose of 75 mg/kg (p.o.); type: functional; conditions: route oral
Mus musculus [12] = assay: Tested for antiinflammatory activity in the mouse active Arthus (MAA) test by intraperitoneal administration; type: functional; conditions: ip, read-out: ID50 (the source's name)
Rattus norvegicus [13] = species on record: Rattus norvegicus; assay: animal or person; conditions: po, read-out: Inhibition
Description: Biological activity against adjuvant-induced arthritis at the dose of 30 mg/kg (p.o.); 30/30

Rattus norvegicus [14] = species on record: Rattus norvegicus; assay: animal or person; conditions: po, read-out: Inhibition; remark: listed apart in the source
Description: Biological activity against adjuvant-induced arthritis at the dose of 60 mg/kg (p.o.); 56/61

Rattus norvegicus [15] = assay: Biological activity against adjuvant-induced arthritis at the dose of 120 mg/kg (p.o.); type: functional; conditions: route oral
Rattus norvegicus [16] = assay: Biological activity against adjuvant-induced arthritis at the dose of 30 mg/kg (p.o.); type: functional; conditions: route oral
Rattus norvegicus [17] = assay: Biological activity against adjuvant-induced arthritis at the dose of 120 mg/kg (p.o.); 65/57; type: functional; conditions: route oral
Rattus norvegicus [18] = assay: Biological activity against adjuvant-induced arthritis at the dose of 60 mg/kg (p.o.); type: functional; conditions: route oral

CC(=O)n1nc(-c2ccc(Cl)cc2)nc1C
LD50 [1]: > 3200 mg/kg
inhibition in vivo at 37.5 mg/kg (Rattus norvegicus [2]): 18%
inhibition in vivo at 150 mg/kg (Rattus norvegicus [3]): 21%
inhibition in vivo at 37.5 mg/kg (Rattus norvegicus [4]): 90%
LD50 [5]: 600 mg/kg
ED50 (Rattus norvegicus [6]): > 150 mg/kg
inhibition in vivo at 75 mg/kg (Rattus norvegicus [7]): 27%
selectivity ratio [8]: > 9.35
ID40 (Mus musculus [9]): 175 mg/kg
ED50 (Mus musculus [9]): 342 mg/kg
inhibition in vivo at 150 mg/kg (Rattus norvegicus [10]): 90%
inhibition in vivo at 75 mg/kg (Rattus norvegicus [11]): 90%
ED50 (Mus musculus [12]): 37 mg/kg

Cc1nnc(C)n1/N=C(\N)c1ccc(C(F)(F)F)cc1
ED50 (Mus musculus [9]): > 600 mg/kg

CCc1nnc(CC)n1N
ED50 (Mus musculus [9]): > 600 mg/kg

Cc1nc(-c2ccc(Cl)cc2)nn1C(=O)c1ccccc1
ED50 (Mus musculus [9]): > 600 mg/kg

Cc1ccc(C(=N)Nn2c(C)nnc2C)cc1
ED50 (Mus musculus [9]): > 600 mg/kg

CC(=O)n1nc(-c2ccc(C)cc2)nc1C
ED50 (Mus musculus [9]): > 600 mg/kg

Cc1nnc(C)n1/N=C(\N)c1ccccc1
ED50 (Mus musculus [9]): > 600 mg/kg

CC(=O)n1nc(-c2ccc(C(F)(F)F)cc2)nc1C
ED50 (Mus musculus [9]): 411 mg/kg

CCC(=O)n1nc(-c2ccc(Cl)cc2)nc1C
ED50 (Mus musculus [9]): 408 mg/kg

CCc1nnc(CC)n1/N=C(\N)c1ccc(Cl)cc1
ED50 (Mus musculus [9]): > 600 mg/kg

CCc1nc(-c2ccc(Cl)cc2)nn1C(C)=O
ED50 (Mus musculus [9]): 543 mg/kg

CC(=O)n1nc(-c2ccccc2)nc1C
ED50 (Mus musculus [9]): 439 mg/kg

CC(C)Cc1ccc(C(C)C(=O)O)cc1 (configuration not stated) [IBUPROFEN]
LD50 [1]: 1650 mg/kg
inhibition in vivo at 30 mg/kg (Rattus norvegicus [13]): 30%
LD50 [5]: 490 mg/kg
ED50 (Rattus norvegicus [6]): 70 mg/kg
inhibition in vivo at 60 mg/kg (Rattus norvegicus [14]): 56%
selectivity ratio [8]: < 2.15
ID40 (Mus musculus [9]): 386 mg/kg
ED50 (Mus musculus [9]): > 600 mg/kg
inhibition in vivo at 120 mg/kg (Rattus norvegicus [15]): 100%
ED50 (Mus musculus [12]): > 150 mg/kg
inhibition in vivo at 30 mg/kg (Rattus norvegicus [16]): 100%
inhibition in vivo at 120 mg/kg (Rattus norvegicus [17]): 65%
inhibition in vivo at 60 mg/kg (Rattus norvegicus [18]): 100%

From ChEMBL document CHEMBL1122028, “1-Acyltriazoles as antiinflammatory agents” (J Med Chem, 1982)
